Biological target: Helios (Homo sapiens, UniProt Q96SW2+Q9UKS7)
Test: Helios Human T Regulatory Cells Degradation Assay
Assay type: cell-based
Design: fluorescently labelled antibodies against Helios in 1× Permeabilization buffer; endogenous in cells; host or cells: cryopreserved human T regulatory cells
Details: cryopreserved human T regulatory cells, incubated 20 hours, Helios-APC antibody staining, flow cytometry; read-out: hTreg Helios DC50
Protocol: Cryopreserved human T regulatory cells were thawed in RPMI+10% FBS+20 ng/mL IL-2. After being spun at 1200 rpm for 5 mins, the cells were resuspended in RPMI+10% FBS+20 ng/mL and rested at 37° C. with 5% CO2 for 3 hours. […] Cell cultures were incubated for 20 hours at 37° C. and 5% CO2. In order to facilitate analysis, cell cultures were spun down at 1200 rpm for 5 minutes and the supernatant was discarded using an EL406 plate washer. After washing three times with 70 μL PBS, cell pellets were resuspended in 50 μL of near IR viability staining solution (Life Technologies, Cat #L34975) and incubated for 30 minutes on ice protected from light. Cells were washed three times with 70 μL PBS+0.5% BSA using an EL406 plate washer. […] Subsequently, 30 μL of 1× Permeabilization buffer was added prior to centrifuging the cells and discarding the supernatant. Stained cells were resuspended in 30 μL of flow cytometry staining buffer (PBS+0.5% BSA) and analyzed using an Intellicyt Ique Plus flow cytometer.

Helios, sequence (Q9UKS7 whole entry): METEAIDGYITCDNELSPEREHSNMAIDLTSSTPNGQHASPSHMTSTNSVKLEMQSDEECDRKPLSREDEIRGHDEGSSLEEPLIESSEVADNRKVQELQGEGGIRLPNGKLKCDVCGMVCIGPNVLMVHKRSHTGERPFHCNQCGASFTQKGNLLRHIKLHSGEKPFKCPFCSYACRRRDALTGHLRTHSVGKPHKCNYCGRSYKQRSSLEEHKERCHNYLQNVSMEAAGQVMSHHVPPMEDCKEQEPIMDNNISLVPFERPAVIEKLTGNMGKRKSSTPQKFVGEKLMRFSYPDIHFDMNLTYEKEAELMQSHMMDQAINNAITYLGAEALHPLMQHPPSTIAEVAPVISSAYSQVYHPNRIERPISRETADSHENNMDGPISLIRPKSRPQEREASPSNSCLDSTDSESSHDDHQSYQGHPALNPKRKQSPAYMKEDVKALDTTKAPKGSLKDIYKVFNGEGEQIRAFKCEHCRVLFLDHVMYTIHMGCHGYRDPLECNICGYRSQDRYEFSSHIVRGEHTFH
Helios, sequence (Q96SW2 whole entry): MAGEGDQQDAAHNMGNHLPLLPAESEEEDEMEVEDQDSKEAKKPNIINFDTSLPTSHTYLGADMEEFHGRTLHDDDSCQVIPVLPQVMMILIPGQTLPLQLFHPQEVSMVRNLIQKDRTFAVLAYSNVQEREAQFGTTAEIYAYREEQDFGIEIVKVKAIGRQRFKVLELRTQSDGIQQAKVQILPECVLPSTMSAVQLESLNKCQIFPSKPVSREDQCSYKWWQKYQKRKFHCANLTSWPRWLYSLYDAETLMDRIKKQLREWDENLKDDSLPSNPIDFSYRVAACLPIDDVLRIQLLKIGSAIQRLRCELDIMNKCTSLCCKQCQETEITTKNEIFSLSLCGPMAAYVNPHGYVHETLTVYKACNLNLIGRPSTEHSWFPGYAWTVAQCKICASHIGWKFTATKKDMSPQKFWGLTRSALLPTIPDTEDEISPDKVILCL
Helios, sequence (Q16531 whole entry partner): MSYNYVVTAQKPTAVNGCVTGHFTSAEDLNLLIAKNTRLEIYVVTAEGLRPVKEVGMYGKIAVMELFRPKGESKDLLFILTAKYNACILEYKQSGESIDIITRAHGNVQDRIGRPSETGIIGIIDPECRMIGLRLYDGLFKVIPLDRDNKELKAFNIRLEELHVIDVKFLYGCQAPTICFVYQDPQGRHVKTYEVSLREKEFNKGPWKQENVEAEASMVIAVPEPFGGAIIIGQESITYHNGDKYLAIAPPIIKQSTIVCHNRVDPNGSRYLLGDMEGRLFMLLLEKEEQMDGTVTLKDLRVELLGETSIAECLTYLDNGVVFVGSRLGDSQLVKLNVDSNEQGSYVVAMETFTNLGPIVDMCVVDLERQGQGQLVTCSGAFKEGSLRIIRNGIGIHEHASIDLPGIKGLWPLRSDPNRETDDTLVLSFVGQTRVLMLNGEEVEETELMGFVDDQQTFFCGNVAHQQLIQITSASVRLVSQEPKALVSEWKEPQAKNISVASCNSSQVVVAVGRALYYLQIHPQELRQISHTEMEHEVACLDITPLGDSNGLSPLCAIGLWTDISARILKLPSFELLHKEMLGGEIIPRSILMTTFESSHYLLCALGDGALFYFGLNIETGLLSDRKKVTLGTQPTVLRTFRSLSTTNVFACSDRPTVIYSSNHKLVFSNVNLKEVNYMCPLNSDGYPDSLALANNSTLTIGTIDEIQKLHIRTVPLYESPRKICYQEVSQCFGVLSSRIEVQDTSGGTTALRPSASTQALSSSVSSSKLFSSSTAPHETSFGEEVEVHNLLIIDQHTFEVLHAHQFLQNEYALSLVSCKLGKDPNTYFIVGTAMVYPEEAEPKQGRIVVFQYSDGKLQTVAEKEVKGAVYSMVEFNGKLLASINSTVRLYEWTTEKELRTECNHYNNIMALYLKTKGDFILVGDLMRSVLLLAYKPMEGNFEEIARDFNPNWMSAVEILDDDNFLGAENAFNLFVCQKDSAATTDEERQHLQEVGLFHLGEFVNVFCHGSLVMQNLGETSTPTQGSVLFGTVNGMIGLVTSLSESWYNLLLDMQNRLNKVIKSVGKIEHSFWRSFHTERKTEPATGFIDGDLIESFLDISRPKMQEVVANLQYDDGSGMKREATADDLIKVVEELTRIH

Structure (SMILES) | DC50
CC1(O)CC2CN(Cc3ccnc(-c4ccc5c(c4)CN(C4CCC(=O)NC4=O)C5=O)c3)CC2C1 (stereo in doubt) [Example 147, (3S)-3-(5-(4-((5-hydroxy-5-methylhexahydrocyclopenta[c]pyrrol-2(1H)-yl)methyl)pyridin-2-yl)-1-oxoisoindolin-2-yl)piperidine-2,6-dione] | 11.5 nM
C[C@H]1[C@H](O)CN1Cc1ccnc(-c2ccc3c(c2)CN(C2CCC(=O)NC2=O)C3=O)c1F (stereo partly drawn) [Example 90, 3-(5-(3-fluoro-4-(((2S,3R)-3-hydroxy-2-methylazetidin-1-yl)methyl)pyridin-2-yl)-1-oxoisoindolin-2-yl)piperidine-2,6-dione] | 454 nM
O=C1CCC(N2Cc3cc(-c4nccc(CN5CCC(O)(c6ccccc6)CC5)c4F)ccc3C2=O)C(=O)N1 (stereo not shown) [Example 91, 3-(5-(3-fluoro-4-((4-hydroxy-4-phenylpiperidin-1-yl)methyl)pyridin-2-yl)-1-oxoisoindolin-2-yl)piperidine-2,6-dione] | ≥ 10000 nM
CC(C)(O)[C@H]1CCCN1Cc1ccnc(-c2ccc3c(c2)CN(C2CCC(=O)NC2=O)C3=O)c1Cl (stereo partly drawn) [Example 96, 3-(5-(3-chloro-4-(((R)-2-(2-hydroxypropan-2-yl)pyrrolidin-1-yl)methyl)pyridin-2-yl)-1-oxoisoindolin-2-yl)piperidine-2,6-dione] | 6.6 nM
CC(C)(O)C1CN(Cc2ccnc(-c3ccc4c(c3)CN(C3CCC(=O)NC3=O)C4=O)c2Cl)C1 (stereo not shown) [Example 97, 3-(5-(3-chloro-4-((3-(2-hydroxypropan-2-yl)azetidin-1-yl)methyl)pyridin-2-yl)-1-oxoisoindolin-2-yl) piperidine-2,6-dione] | 17.1 nM
COCC1CCCN(Cc2ccnc(-c3ccc4c(c3)CN(C3CCC(=O)NC3=O)C4=O)c2)C1 (stereo not shown) [Example 99, 3-(5-(4-((3-(methoxymethyl)piperidin-1-yl)methyl)pyridin-2-yl)-1-oxoisoindolin-2-yl)piperidine-2,6-dione] | 2 nM
O=C1CCC(N2Cc3cc(-c4cc(CN5CCC6(CC5)COC6)ccn4)ccc3C2=O)C(=O)N1 (stereo not shown) [Example 100, 3-(5-(4-((2-oxa-7-azaspiro[3.5]nonan-7-yl)methyl)pyridin-2-yl)-1-oxoisoindolin-2-yl)piperidine-2,6-dione] | 3.2 nM

The remaining compounds from weak to strong by DC50, led by results:

DC50 | Structure (SMILES)
653 nM | CC1CC(O)CCN1Cc1ccnc(-c2ccc3c(c2)CN(C2CCC(=O)NC2=O)C3=O)c1F (single isomer, unassigned) [Example 212, 3-(5-(3-fluoro-4-((4-hydroxy-2-methylpiperidin-1-yl)methyl)pyridin-2-yl)-1-oxoisoindolin-2-yl)piperidine-2,6-dione]
18.4 nM | CC(C)(O)C1CN(Cc2ccnc(-c3ccc4c(c3)CN(C3CCC(=O)NC3=O)C4=O)c2F)C1 (stereo not shown) [Example 89, 3-(5-(3-fluoro-4-((3-(2-hydroxypropan-2-yl)azetidin-1-yl)methyl)pyridin-2-yl)-1-oxoisoindolin-2-yl)piperidine-2,6-dione]
3.5 nM | CC(C)(C)OC(=O)[C@@H]1C[C@@H](OC(C)(C)C)CN1Cc1ccnc(-c2ccc3c(c2)CN(C2CCC(=O)NC2=O)C3=O)c1F (single isomer, unassigned) [Example 214]
3.4 nM | O=C1CCC(N2Cc3cc(-c4nccc(CN5CC6(CCC6)C5)c4F)ccc3C2=O)C(=O)N1 (stereo not shown) [Example 88, 3-(5-(4-((2-azaspiro[3.3]heptan-2-yl)methyl)-3-fluoropyridin-2-yl)-1-oxoisoindolin-2-yl)piperidine-2,6-dione]
1.7 nM | O=C1CCC(N2Cc3cc(-c4cc(CN5CC6(CCC6)C5)c(F)cn4)ccc3C2=O)C(=O)N1 (stereo not shown) [Example 93, 3-(5-(4-((2-azaspiro[3.3]heptan-2-yl)methyl)-5-fluoropyridin-2-yl)-1-oxoisoindolin-2-yl) piperidine-2,6-dione]
1.2 nM | CC(C)(O)C1CCN(Cc2cc(-c3ccc4c(c3)CN(C3CCC(=O)NC3=O)C4=O)ncc2F)CC1 (stereo not shown) [Example 92, 3-(5-(5-fluoro-4-((4-(2-hydroxypropan-2-yl)piperidin-1-yl)methyl)pyridin-2-yl)-1-oxoisoindolin-2-yl)piperidine-2,6-dione]

Reference: US20250346574A1, “PYRIDINYL SUBSTITUTED OXOISOINDOLINE COMPOUNDS FOR THE TREATMENT OF CANCER” (Bristol-Myers Squibb Company, priority 2021, published 2025)
